The results in this text go back to patent US4968819A, “Process for the preparation of chromene derivatives” (Alkaloida Vegyeszeti Gyar, priority 1983, dated 1990).

What all share (type): in vivo
The subject of assay [1] is tomato root gall nematode (Meloidogyne incognita). Kind of assay: Tomato root gall nematode test (II. stage infective larvae, treated NGM agar plate). Conditions: 72 hours; for mortality at 200 µg/mL / mortality at 400 µg/mL: Meloidogyne incognita. Here is the method: (6) Root gall nematode The test is carried out on II. stage infective larvae, which are collected from the root of tomato plant, placed on a filter and incubated in sterile water at 25° C. The hatched larvae are collected every 24 hours and immediately placed onto the treated nutrient medium. As nutrient medium NGM agar plate free from bacterial is used. 0.5 ml of the acetoneous solution of the test compound is applied onto the surface of the plate in a Petri-dish. After the acetone has evaporated 5 μl of the larva suspension is applied onto each plate. After 72 hours the surviving and killed insects are counted.

A further assay has as its system Caenorhabditis elegans. Kind of assay: Caenorhabditis elegans test (treated NGM agar plate, young adults). Here is the method:
(5) Caenorhabditis elegans 0.5 ml of the acetonous solution of the test compound is applied onto a NGM agar plate free from bacteria in a Petri dish. After the acetone has dried 25-30 young adults are placed on the plate. After 24 hours the surviving and killed insects are counted.

Assay [2] deals with domestic fly (Musca domestica). Kind of assay: Domestic fly test (larvae in treated nutrient medium). Conditions: 0.1% related to milk, 0.05% related to total nutrient medium. The protocol:
The fly larvae are grown on a nutrient medium of the following composition: 2 ml of milk; 2 ml of water; 2 g of wheat bran; 0.1 ml of saturated alcoholic nipagin solution.
The nutrient medium is filled into cylindrical glass vials (30×100 mm) and 25 fly larvae are raised in each vial. The test compound is dissolved in milk; the end concentration (related to milk) amounts to 0.1% which corresponds to 0.05% (related to the total nutrient medium). The solution of the active ingredient is admixed with the nutrient medium whereupon […] of domestic fly larvae of the I. stage are placed into each vial and the vials are closed with a hard cotton-wool stopper. The nymphs emerging from the larvae are collected in each vial, counted and kept in a Petri dish (diameter 25 mm) until flies hatch from the nymphs. The hatched flies are counted.

The subject of assay [3] is cabbage butterfly (Pieris brassicae). In words: Cabbage butterfly test (sprayed cabbage seedlings). Conditions: 50 EC; for pest or weed control at 0.01 % / pest or weed control at 0.1 %: Pieris brassicae, read-out: Killing rate of larvae. The protocol:
From the 50 EC of the test compound a diluted series is prepared with water and the host seedlings (cabbage) are sprayed with this composition until the spray runs down. The spray is allowed to dry whereupon 20 young larvae of the II. stage are placed on each treated plant and the seedlings are kept under so-called "long-day" illumination (18 hours of illumination and 6 hours of darkness). The nibbled plants are replaced by similarly sprayed plants if necessary. The killing rate of the insects, the growth rate of the larvae and the morphological deformations of the surviving nymphs and adults are registered.
In the 50 EC compositions the concentration of compounds 23 and 25 amounts to 0.01% and that of the other compounds to 0.1%.

Where [4] appears, read: 200 μg/ml, first test, read-out: mortality 1.
[5] abbreviates: 200 μg/ml, second test, read-out: mortality 2.
The mark [6] stands for this setting: 200 μg/ml, read-out: mortality Average.
The mark [7] stands for this setting: 400 μg/ml, first test, read-out: mortality 1.
[8] abbreviates: 400 μg/ml, second test, read-out: mortality 2.
The mark [9] stands for this setting: 400 μg/ml, read-out: mortality Average.
The mark [10] stands for this setting: Caenorhabditis elegans, 24 h, read-out: Lethality.

Read-outs that look alike come from different tables or passages of the source.

For `CCOc1cc2c(cc1OCC)OC(C)(C)C=C2` [Compound 2], the Nematocidal effect entry in assay [1] (200 μg/ml) and in assay [1] (400 μg/ml) was “strong” throughout. The mortality at 200 µg/mL in assay [1] (setting [4]) is 74%; in assay [1] (setting [5]), 69%; in assay [1] (setting [6]), 72%. The mortality at 400 µg/mL in assay [1] (setting [7]) is 83%; in assay [1] (setting [8]), 90%; in assay [1] (setting [9]), 87%.

As to `CC1(C)C=Cc2cc3c(cc2O1)OCO3` [Compound 4], the Nematocidal effect entry in assay [1] (200 μg/ml) and in assay [1] (400 μg/ml) was “strong” in each case. Moreover, the mortality at 200 µg/mL came to 84% in assay [1] (setting [4]), 69% in assay [1] (setting [5]), 77% in assay [1] (setting [6]) and 100% in the assay with Caenorhabditis elegans (setting [10]). Besides, the mortality at 400 µg/mL in assay [1] (setting [7]) turned out to be 96%; in assay [1] (setting [8]) it was 92%; in assay [1] (setting [9]), 94%; in the assay with Caenorhabditis elegans (setting [10]), 100%. Further, the “Size of descendant population” value with Caenorhabditis elegans (100 μg/ml), in the assay on Caenorhabditis elegans (200 μg/ml) and with Caenorhabditis elegans (400 μg/ml) was “no descendants” each time. For the same compound, the mortality at 100 µg/mL with Caenorhabditis elegans (setting [10]) is 100%.

Consider `C=CCOc1cc2c(cc1OCC=C)OC(C)(C)C=C2` [Compound 5], for which, in assay [1] (400 μg/ml), the Nematocidal effect entry is “medial”. In addition, the mortality at 200 µg/mL in assay [1] (setting [4]) came out at 18%; in assay [1] (setting [5]), 29%; in assay [1] (setting [6]), 23%. Besides, the mortality at 400 µg/mL was 45% in assay [1] (setting [7]), 43% in assay [1] (setting [8]) and 44% in assay [1] (setting [9]). Moreover, the figures for the “Size of descendant population” value in the assay with Caenorhabditis elegans (200 μg/ml) and with Caenorhabditis elegans (400 μg/ml) were “some descendants” and “no descendants”, respectively.

As to `C=CCOc1cc2c(cc1OC)C=CC(C)(C)O2` [Compound 7], in the assay on Caenorhabditis elegans (200 μg/ml), the “Size of descendant population” value is recorded as “no descendants”. Further, the “Size of descendant population” value in the assay with Caenorhabditis elegans (400 μg/ml) is given as “no descendants”. Further, in the assay on Caenorhabditis elegans (setting [10]), the mortality at 200 µg/mL amounted to 90% and the mortality at 400 µg/mL worked out at 90%.

`CCCCOc1cc2c(cc1OCCCC)OC(C)(C)C=C2` [Compound 14]: the “Size of descendant population” value in the assay with Caenorhabditis elegans (200 μg/ml) is reported as “reduced”. For the same compound, the “Size of descendant population” value in the assay on Caenorhabditis elegans (400 μg/ml) is listed as “reduced”. Further, in the assay with Caenorhabditis elegans (setting [10]), the mortality at 200 µg/mL was 30% and the mortality at 400 µg/mL is 80%.

Take `COc1ccc2c(c1)OC(C)(C)C=C2` [Compound 23, 7-methoxy-2,2-dimethyl-2H-chromene, reference compound]: in assay [2], the Survival adult was 33.3% and the Survival nymph was 100%. Moreover, the “Size of descendant population” value with Caenorhabditis elegans (200 μg/ml) is reported as “reduced”. For the same compound, the “Size of descendant population” value with Caenorhabditis elegans (400 μg/ml) was “no descendants”. Further, in assay [3] (0.01%), the Survival adult is recorded as 50%, the Survival nymph is given as 59% and the pest or weed control at 0.01 % was 41%.

For `CCCOc1ccc2c(c1)OC(C)(C)C=C2` [Compound 25], in assay [3] (0.01%), the Survival adult was determined as 39%, the Survival nymph turned out to be 48% and the pest or weed control at 0.01 % came to 52%.

In assay [2], `CCC(C)Oc1ccc2c(c1)OC(C)(C)C=C2` (stereo not shown) [Compound 28] displayed a Survival adult of 25.6% and a Survival nymph of 115%.

On to `CC(C)COc1ccc2c(c1)OC(C)(C)C=C2` [Compound 29], for which, in assay [2], the Survival adult came out at 28.2% and the Survival nymph was determined as 100%.

On to `CCOc1cc2c(cc1OC)OC(C)(C)C=C2` [Compound 34], for which, in assay [2], the Survival adult is on record as 12.8% and the Survival nymph is 85%. Also, in the assay with Caenorhabditis elegans (200 μg/ml), the Remarks entry is recorded as “paralysation” and the “Size of descendant population” value is given as “reduced”. For the same compound, in the assay with Caenorhabditis elegans (400 μg/ml), the Remarks entry was “paralysation” and the “Size of descendant population” value is “some descendants”. For the same compound, in the assay on Caenorhabditis elegans (setting [10]), the mortality at 200 µg/mL is 15% and the mortality at 400 µg/mL was found to be 23%.

In assay [2], `COc1ccc2c(c1OC)OC(C)(C)C=C2` [Compound 35] had a Survival adult of 0% and a Survival nymph of 12%. In addition, in the assay on Caenorhabditis elegans (200 μg/ml), the Remarks entry is reported as “paralysation” and the “Size of descendant population” value is recorded as “reduced”. In the assay with Caenorhabditis elegans (400 μg/ml), the Remarks entry is given as “paralysation” and the “Size of descendant population” value is recorded as “no descendants”. In addition, in the assay with Caenorhabditis elegans (setting [10]), the mortality at 200 µg/mL worked out at 67% and the mortality at 400 µg/mL is 100%.

As to `C#CCOc1ccc2c(c1)OC(C)(C)C=C2` [Compound 37], in the assay with Caenorhabditis elegans (200 μg/ml), the Remarks result is recorded as “paralysation” and the “Size of descendant population” value is recorded as “no descendants”. For the same compound, in the assay with Caenorhabditis elegans (400 μg/ml), the Remarks result was “paralysation” and the “Size of descendant population” value was “no descendants”. In addition, in the assay with Caenorhabditis elegans (setting [10]), the mortality at 200 µg/mL is 100% and the mortality at 400 µg/mL came out at 100%.

For the compound `CCOc1cc(C)c2c(c1)OC(C)(C)C=C2` [Compound 38], in assay [2], the Survival adult is 14.8% and the Survival nymph stood at 40%. Further, in assay [3] (0.1%), the Survival adult is on record as 19%, the Survival nymph is given as 19% and the pest or weed control at 0.1 % was found to be 81%.

Turning to `Cc1cc(OC(C)C)cc2c1C=CC(C)(C)O2` [Compound 40], in assay [2], the Survival adult is on record as 27.6% and the Survival nymph came to 50.9%.

On to `CCC(C)Oc1cc(C)c2c(c1)OC(C)(C)C=C2` (stereo not shown) [Compound 41], for which, in assay [2], the Survival adult is recorded as 12.5% and the Survival nymph was 25.4%. For the same compound, in assay [3] (0.1%), the Survival adult is given as 14%, the Survival nymph is recorded as 19% and the pest or weed control at 0.1 % is 11%.

Regarding `Cc1cc(OC2CCCC2)cc2c1C=CC(C)(C)O2` [Compound 43], in assay [2], the Survival adult is 31.8% and the Survival nymph came out at 52.7%. Besides, the pest or weed control at 0.1 % in assay [3] (0.1%) was determined as 100%.

Consider `C#CCOc1cc(C)c2c(c1)OC(C)(C)C=C2` [Compound 44], for which, in assay [2], the Survival adult turned out to be 10.6% and the Survival nymph amounted to 50.9%. In the assay on Caenorhabditis elegans (200 μg/ml), the Remarks result is reported as “paralysation” and the “Size of descendant population” value is “some descendants”. Further, in the assay with Caenorhabditis elegans (400 μg/ml), the Remarks entry is “paralysation” and the “Size of descendant population” value was “no descendants”. For the same compound, in assay [3] (0.1%), the Survival adult was found to be 17%, the Survival nymph was 17% and the pest or weed control at 0.1 % amounted to 83%.

In assay [2], `CCCOc1cc(OC)c2c(c1)OC(C)(C)C=C2` [Compound 46] yielded a Survival adult of 6.4% and a Survival nymph of 9.1%. Moreover, in assay [3] (0.1%), the Survival adult was determined as 12%, the Survival nymph came to 12% and the pest or weed control at 0.1 % amounted to 88%.

Turning to `COc1cc(OC(C)C)cc2c1C=CC(C)(C)O2` [Compound 47], in assay [3] (0.1%), the Survival adult was determined as 9%, the Survival nymph is reported as 13% and the pest or weed control at 0.1 % stood at 87%.

Turning to `CCC(C)Oc1cc(OC)c2c(c1)OC(C)(C)C=C2` (stereo not shown) [Compound 48, 5-methoxy-7-sec. butoxy-2,2-dimethyl-2H-chromene], the pest or weed control at 0.1 % in assay [3] (0.1%) amounted to 100%.

For `COc1cc(OCC(C)C)cc2c1C=CC(C)(C)O2` [Compound 49], in assay [2], the Survival adult came to 0% and the Survival nymph is listed as 0%. Besides, the pest or weed control at 0.1 % in assay [3] (0.1%) was 100%.

As for `CCOc1ccc2c(c1OC)OC(C)(C)C=C2` [Compound 50], in assay [2], the Survival adult is listed as 4.2% and the Survival nymph was determined as 5.4%. In the assay with Caenorhabditis elegans (200 μg/ml), the “Size of descendant population” value is reported as “reduced”. Besides, in the assay on Caenorhabditis elegans (400 μg/ml), the “Size of descendant population” value is listed as “no descendants”. Further, in assay [3] (0.1%), the Survival adult is reported as 24%, the Survival nymph was 24% and the pest or weed control at 0.1 % came out at 76%.

In the case of `CCC(C)Oc1ccc2c(c1OC)OC(C)(C)C=C2` (stereo not shown) [Compound 53, 7sec. butoxy-8-methoxy-2,2-dimethyl-2chromene], the “Size of descendant population” value with Caenorhabditis elegans (200 μg/ml) and in the assay with Caenorhabditis elegans (400 μg/ml) was “reduced” each time. The pest or weed control at 0.1 % in assay [3] (0.1%) was found to be 100%.

In the case of `COc1c(OCC(C)C)ccc2c1OC(C)(C)C=C2` [Compound 54], in assay [3] (0.1%), the Survival adult is on record as 7%, the Survival nymph is 7% and the pest or weed control at 0.1 % amounted to 93%.
